Reference: patent EP0421419A2, “Tocotrienols in the treatment of hypercholesterolemia, hyperlipidemia and thromboembolic disorders” (Bristol-Myers Squibb Company, priority 1989, dated 1991)
≈ marks a conversion by molar mass, not a printed value. Read-outs that look alike come from different tables or passages of the source.

Legend:
[1] = test system: Cholesterol Synthesis in Isolated Rat Hepatocytes; experiment: Rat hepatocyte cholesterol biosynthesis model (14C-acetate incorporation into digitonin-precipitable sterols); type: cell-based; settings: for inhibition at 125 µg/mL / inhibition at 250 µg/mL / inhibition at 500 µg/mL / IC50: Rattus norvegicus, Hepatocyte, 45 min preincubation, 30 min incorporation
Procedure: Primary rat parenchymal hepatocytes were prepared from male Wistar rats (180-220 g) at mid-dark in the diurnal cycle by standard collagenase perfusion method as described previously. Ingebritsen et al. J. Biol. Chem., 254: 9986-9989, (1979). Aliquots of cells were suspended (100 mg in 2 ml) in Eagle's minimum essential medium (MEM) supplemented with 2% bovine albumin, and preincubated in a shaking water bath at about 37° under 95% O₂/5% CO₂ with compounds added as given in the data. […] Following a preincubation of about 15 to about 45 minutes as indicated, cholesterol synthesis in intact cells was assayed by 2-14C-acetate (1.8 mCi/mmol, 0.5 µCi/ml) incorporation for about 30 to about 60 minutes (previously shown to be time-linear) into total digitonin-precipitable sterols. […] Percent inhibition was calculated from the average of duplicates vs. triplicate vehicle controls conducted simultaneously.
The primary rat hepatocyte assay for cholesterol bio-synthesis inhibition was conducted as described in Example 2 except the preincubation was about 45 minutes and the 14C-acetate incorporation was about 30 minutes. The indicated compounds were purified from the same natural product source as the mixture used in Example 2. […] Two-component mixtures of the constituents separated from the tocotrienol mixture were tested under the conditions indentical to Table 2A.

[2] = test system: Cholesterol Synthesis in HepG2 Cells; experiment: HepG2 cell culture model, 14C-acetate incorporation assay; type: cell-based, human; settings: Homo sapiens, HepG2; 10 µM, about 4 hours; read-out: % Inhibition 14C-Ac
Procedure: HepG2 cells obtained from the American Type Culture Collection were routinely passaged in RPMI-1640 plus 10% fetal bovine serum (FBS) and were subcultured into 35 mm diameter wells for experiments. […] The LDS medium supplement was prepared according to Cham et al., J. Lipid Res., 17: 176-181, (1976). After about 16 hours in LDS containing media, test compounds were added in dimetthylsulfoxide vehicle (0.5% v/v final conc.) for the period of time indicated in the data (generally 4 hours). Cholesterol synthesis was then directly determined by the incorporation of 2-14C-acetate (1.8-3.0 mCi/mmol) into digitonin-precipitable sterols essentially as described for the rat hepatocyte methol above. Greater than 97% of the radiolabelled sterol isolated by this procedure was cholesterol as judged by HPLC. Percent inhibition was calculated from the average of duplicates or triplicates vs. controls receiving vehicle.
The human hepatoma HepG2 cell culture model was employed to compare the intrinsic activities of the tocotrienols. HepG2 cells were incubated with the indicated compounds for about 4 hours at 10 µM. Cholestrol synthesis was assayed by 14C-acetate incorporation and HMG-CoA reductase suppression was assayed in the isolated microsomal fraction. Cholesterol synthesis inhibition was assayed by 14C-acetate incorporation after preincubation of HepG2 cells with the compounds for about 2 hours or about 4 hours (Example IV). […] As the data in Figure 1 indicate, gamma-tocotrienol has an even greater relative potency compared to alpha-tocotrienol in the HepG2 cell model than in rat hepatocytes. The IC50s from these studies are given in Table 3, in which it can be seen that the intrinsic potency of gamma-tocotrienol is over 30-fold greater than that of alpha-tocotrienol.

Lipid Metabolism [3] = experiment: Lipid metabolism in normocholesterolemic chickens fed compound in diet; type: in vivo; settings: 20 ppm in corn control diet, 4 weeks; for HDL/LDL: control 1.413; for LDL-Cholesterol: control 76.0(±5.3); for HDL-Cholesterol: control 107.4(±7.0); for Serum Triglycerides: control 115.2(±13); for Serum Cholesterol: control 197.0(±5.2)
Procedure: Natural gamma-tocotrienol and delta-tocotrienol were evaluated for their hypocholesterolemic action in normocholesterolemic chickens and genetically hypercholesterolemic swine. Newborn male chicks (10 for each group) were raised on a standard corn-soybean-based control diet for two weeks and then were switched to either control or experimental diets for four weeks. Drug treatment consisted of the addition of gamma-tocotrienol or delta-tocotrienol to the corn-soybean-based diet at a concentration of 20 ppm. At the end of the feeding period, all the birds were fasted (about 36 hours) and refed (about 48 hours) to induce cholesterolgenic emzymes prior to sacrifice. The specific activity of HMG-CoA reductase, total serum cholesterol levels, HDL/LDL cholesterol pools, and serum triglyceride levels were examined (Table 5).
Similarly, synthetic gamma-tocotrienol was administered to male chicks at 50 ppm using the same protocol except HMG-CoA reductase levels were not determined.

Lipid Metabolism [4] = experiment: Lipid metabolism in genetically hypercholesterolemic swine fed compound in diet; type: in vivo; settings: 4 weeks; for Serum Cholesterol: 75 ppm in corn-soybean meal control diet, control 406.7(±12.8); for HDL-Cholesterol [% of Control] / LDL-Cholesterol [% of Control] / Serum Cholesterol [% of Control] / Serum Triglycerides [% of Control] / HDL/LDL / HDL-Cholesterol / Serum Triglycerides / LDL-Cholesterol: 75 ppm in diet; for HDL/LDL: control 0.078; for HDL-Cholesterol: control 28.8(±1.1); for Serum Triglycerides: control 67.9(±2.8); for LDL-Cholesterol: control 367.1(±15.7)
Description: Genetically hypercholesterolemic swine (3 per group) were fed for four weeks on either a standard corn-soybean-based control diet or an experimental diet. The experimental diet consisted of the standard mix containing either gamma-tocotrienol or delta-tocotrienol at 75 ppm. The same protocol used for the chicken study was used for the swine group, except HMG-CoA reductase levels were not determined in this case. […] The HDL/LDL atherogenic index as before improved dramatically with drug treatment (Table 7).

SMILES	inhibition at 10 µM [2] [%]	HDL-Cholesterol [% of Control] (Lipid Metabolism [3]) [%]	LDL-Cholesterol [% of Control] (Lipid Metabolism [3]) [%]	Serum Cholesterol [% of Control] (Lipid Metabolism [3]) [%]	Serum Triglycerides [% of Control] (Lipid Metabolism [3]) [%]	HDL/LDL (Lipid Metabolism [3])	LDL-Cholesterol (Lipid Metabolism [3])	HDL-Cholesterol (Lipid Metabolism [3])	Serum Triglycerides (Lipid Metabolism [3])	Serum Cholesterol (Lipid Metabolism [3])	Serum Cholesterol (Lipid Metabolism [4])	HDL-Cholesterol [% of Control] (Lipid Metabolism [4]) [%]	LDL-Cholesterol [% of Control] (Lipid Metabolism [4]) [%]	Serum Cholesterol [% of Control] (Lipid Metabolism [4]) [%]	Serum Triglycerides [% of Control] (Lipid Metabolism [4]) [%]	HDL/LDL (Lipid Metabolism [4])	HDL-Cholesterol (Lipid Metabolism [4])	Serum Triglycerides (Lipid Metabolism [4])	LDL-Cholesterol (Lipid Metabolism [4])	also measured
CC(C)=CCC/C(C)=C/CC/C(C)=C/CC[C@]1(C)CCc2cc(O)c(C)c(C)c2O1 [d-γ-tocotrienol]	78	95.3	56.7	76.4	82.8	1.669	43.1(±8.3) mg/dl	102.3(±4.5) mg/dl	95.4(±5.9) mg/dl	150.5(±4.2) mg/dl	212.8(±9.0) mg/dl	104.5	46.0	51.3	76.4	0.172	29.8(±2.9) mg/dl	50.9(±3.1) mg/dl	172.8(±7.1) mg/dl	inhibition at 125 µg/mL ([1]; read-out: % Inhibition at µg/ml conc: 125, 125 µg/ml, Expt. # 2): 28%; inhibition at 250 µg/mL ([1]; read-out: % Inhibition at µg/ml conc: 250, 250 µg/ml, Expt. # 1): 48%; inhibition at 250 µg/mL ([1]; read-out: % Inhibition at µg/ml conc: 250, 250 µg/ml, Expt. # 2): 34%; inhibition at 500 µg/mL ([1]; read-out: % Inhibition at µg/ml conc: 500, 500 µg/ml, Expt. # 1): 60%; inhibition at 500 µg/mL ([1]; read-out: % Inhibition at µg/ml conc: 500, 500 µg/ml, Expt. # 2): 61%; IC50 ([1]; read-out: IC₅₀, Expt. # 1): 270 µg/mL (≈ 658 µM); IC50 ([1]; read-out: IC₅₀, Expt. # 2): 360 µg/mL (≈ 877 µM)
CC(C)=CCC/C(C)=C/CC/C(C)=C/CC[C@]1(C)CCc2cc(O)cc(C)c2O1 [d-δ-tocotrienol]	79	91.9	53.7	71.5	77.0	2.419	40.8(±6.6) mg/dl	98.7(±8.4) mg/dl	88.7(±7.3) mg/dl	140.9(±3.1) mg/dl	214.9(±18.6 mg/dl	105.3	44.8	47.7	70.3	0.189	34.4(±1.9) mg/dl	44.4(±1.3) mg/dl	182.2(±8.2) mg/dl	inhibition at 125 µg/mL ([1]; 125 µg/ml, Expt. # 2, read-out: % Inhibition at µg/ml conc: 125): 26%; inhibition at 250 µg/mL ([1]; 250 µg/ml, Expt. # 1, read-out: % Inhibition at µg/ml conc: 250): 49%; inhibition at 250 µg/mL ([1]; 250 µg/ml, Expt. # 2, read-out: % Inhibition at µg/ml conc: 250): 33%; inhibition at 500 µg/mL ([1]; 500 µg/ml, Expt. # 1, read-out: % Inhibition at µg/ml conc: 500): 62%; inhibition at 500 µg/mL ([1]; 500 µg/ml, Expt. # 2, read-out: % Inhibition at µg/ml conc: 500): 63%; IC50 ([1]; Expt. # 1, read-out: IC₅₀): 260 µg/mL (≈ 656 µM); IC50 ([1]; Expt. # 2, read-out: IC₅₀): 340 µg/mL (≈ 857 µM); times more active than alpha-tocotrienol ([1]; rat and chicken hepatocyte system): at least 5 times
